Laboratory results reported in PubChem BioAssay (NCI).
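All cell lines were grown in 96-well plates and treated with compound for 48 hours. At the GI50, growth is halved. Definition used: TGI = concentration required for complete inhibition of growth.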

Key:
Assay in all cases: inhibition of tumour cell growth, NCI panel, 48 h; in the data active = GI50 below about 0.43 µM; inactive = the rest
RPMI-8226 leukemia = system: RPMI-8226 leukemia
SF-268 CNS = system: SF-268 CNS
SNB-75 CNS = system: SNB-75 CNS
MOLT-4 leukemia = system: MOLT-4 leukemia
IGROV1 ovarian = system: IGROV1 ovarian
NCI-H522 lung = system: NCI-H522 lung
OVCAR-5 ovarian = system: OVCAR-5 ovarian
HL-60(TB) leukemia = system: HL-60(TB) leukemia
NCI/ADR-RES ovarian = system: NCI/ADR-RES ovarian
DU-145 prostate = system: DU-145 prostate
MALME-3M melanoma = system: MALME-3M melanoma
MCF7 breast = system: MCF7 breast
U251 CNS = system: U251 CNS
UACC-62 melanoma = system: UACC-62 melanoma
NCI-H226 lung = system: NCI-H226 lung
PC-3 prostate = system: PC-3 prostate
CCRF-CEM leukemia = system: CCRF-CEM leukemia
NCI-H460 lung = system: NCI-H460 lung
SK-MEL-5 melanoma = system: SK-MEL-5 melanoma
A498 renal = system: A498 renal
CAKI-1 renal = system: CAKI-1 renal
HT29 colon = system: HT29 colon
LOX IMVI melanoma = system: LOX IMVI melanoma
T-47D breast = system: T-47D breast
MDA-MB-231 breast = system: MDA-MB-231 breast
SF-295 CNS = system: SF-295 CNS
SK-MEL-28 melanoma = system: SK-MEL-28 melanoma
SNB-19 CNS = system: SNB-19 CNS
OVCAR-4 ovarian = system: OVCAR-4 ovarian
UO-31 renal = system: UO-31 renal
HCT-15 colon = system: HCT-15 colon
HS 578T breast = system: HS 578T breast
HOP-62 NSCLC = system: HOP-62 NSCLC
SW-620 colon = system: SW-620 colon
MDA-MB-435 = system: MDA-MB-435
RXF 393 renal = system: RXF 393 renal
HCT-116 colon = system: HCT-116 colon
K-562 leukemia = system: K-562 leukemia
HCC-2998 colon = system: HCC-2998 colon
SR leukemia = system: SR leukemia
TK-10 renal = system: TK-10 renal
ACHN renal = system: ACHN renal
KM12 colon = system: KM12 colon
SF-539 CNS = system: SF-539 CNS
A549 NSCLC = system: A549 NSCLC
786-0 renal = system: 786-0 renal
SK-OV-3 ovarian = system: SK-OV-3 ovarian
NCI-H23 lung = system: NCI-H23 lung
SN12C renal = system: SN12C renal
BT-549 breast = system: BT-549 breast
M14 melanoma = system: M14 melanoma
OVCAR-3 ovarian = system: OVCAR-3 ovarian
SK-MEL-2 melanoma = system: SK-MEL-2 melanoma
OVCAR-8 ovarian = system: OVCAR-8 ovarian
COLO 205 colon = system: COLO 205 colon
UACC-257 melanoma = system: UACC-257 melanoma
EKVX NSCLC = system: EKVX NSCLC
HOP-92 NSCLC = system: HOP-92 NSCLC

Cn1cc(C2=C(c3c[nH]c4ccccc34)C(=O)NC2=O)c2ccccc21
> 25 µM: TGI (SF-268 CNS) | TGI (IGROV1 ovarian) | TGI (NCI-H522 lung) | TGI (OVCAR-5 ovarian) | TGI (NCI/ADR-RES ovarian) | TGI (DU-145 prostate) | TGI (MALME-3M melanoma) | TGI (MCF7 breast) | TGI (U251 CNS) | TGI (UACC-62 melanoma) | TGI (NCI-H226 lung) | TGI (PC-3 prostate) | TGI (NCI-H460 lung) | TGI (CAKI-1 renal) | TGI (HT29 colon) | TGI (LOX IMVI melanoma) | TGI (T-47D breast) | TGI (MDA-MB-231 breast) | TGI (SK-MEL-28 melanoma) | TGI (SNB-19 CNS) | TGI (OVCAR-4 ovarian) | TGI (UO-31 renal) | TGI (HCT-15 colon) | TGI (HS 578T breast) | TGI (HOP-62 NSCLC) | TGI (SW-620 colon) | TGI (MDA-MB-435) | TGI (HCT-116 colon) | TGI (K-562 leukemia) | TGI (HCC-2998 colon) | TGI (TK-10 renal) | TGI (ACHN renal) | TGI (KM12 colon) | TGI (A549 NSCLC) | TGI (786-0 renal) | TGI (SK-OV-3 ovarian) | TGI (NCI-H23 lung) | TGI (SN12C renal) | TGI (M14 melanoma) | TGI (SK-MEL-2 melanoma) | TGI (OVCAR-8 ovarian) | TGI (COLO 205 colon)
6.35 µM: TGI (HL-60(TB) leukemia)
1.96 µM: TGI (RXF 393 renal)
0.755 µM: TGI (A498 renal)
1.14 µM: TGI (SF-539 CNS)
3.1 µM: TGI (SK-MEL-5 melanoma)
> 11.9 µM: TGI (OVCAR-3 ovarian)
> 7.62 µM: TGI (SNB-75 CNS)
active: GI50 (SNB-75 CNS) 0.071 µM | GI50 (MALME-3M melanoma) 0.143 µM | GI50 (MCF7 breast) 0.278 µM | GI50 (CCRF-CEM leukemia) 0.264 µM | GI50 (A498 renal) 0.169 µM | GI50 (SF-295 CNS) 0.201 µM | GI50 (UO-31 renal) 0.334 µM | GI50 (HS 578T breast) 0.151 µM | GI50 (RXF 393 renal) 0.198 µM | GI50 (SR leukemia) 0.233 µM | GI50 (TK-10 renal) 0.132 µM | GI50 (SF-539 CNS) 0.195 µM | GI50 (NCI-H23 lung) 0.218 µM | GI50 (BT-549 breast) 0.314 µM
> 7.28 µM: TGI (BT-549 breast)
> 20.8 µM: TGI (RPMI-8226 leukemia)
inactive: GI50 (RPMI-8226 leukemia) 1.57 µM | GI50 (SF-268 CNS) 1.1 µM | GI50 (MOLT-4 leukemia) 0.458 µM | GI50 (IGROV1 ovarian) 0.975 µM | GI50 (NCI-H522 lung) 2.11 µM | GI50 (OVCAR-5 ovarian) > 25 µM | GI50 (HL-60(TB) leukemia) 0.871 µM | GI50 (NCI/ADR-RES ovarian) 3.33 µM | GI50 (DU-145 prostate) 2.37 µM | GI50 (U251 CNS) 1.36 µM | GI50 (UACC-62 melanoma) 1.59 µM | GI50 (NCI-H226 lung) 1.99 µM | GI50 (PC-3 prostate) 3.91 µM | GI50 (NCI-H460 lung) 0.732 µM | GI50 (SK-MEL-5 melanoma) 0.859 µM | GI50 (CAKI-1 renal) 0.523 µM | GI50 (HT29 colon) 0.968 µM | GI50 (LOX IMVI melanoma) 1.3 µM | GI50 (T-47D breast) 0.846 µM | GI50 (MDA-MB-231 breast) 9.06 µM | GI50 (SK-MEL-28 melanoma) 7 µM | GI50 (SNB-19 CNS) 3.31 µM | GI50 (OVCAR-4 ovarian) > 5.06 µM | GI50 (HCT-15 colon) 1.12 µM | GI50 (HOP-62 NSCLC) 0.585 µM | GI50 (SW-620 colon) > 4.92 µM | GI50 (MDA-MB-435) 0.937 µM | GI50 (HCT-116 colon) 1.51 µM | GI50 (K-562 leukemia) 0.704 µM | GI50 (HCC-2998 colon) 6.66 µM | GI50 (ACHN renal) 1.73 µM | GI50 (KM12 colon) 0.586 µM | GI50 (A549 NSCLC) 1.66 µM | GI50 (786-0 renal) 0.446 µM | GI50 (SK-OV-3 ovarian) 1.08 µM | GI50 (SN12C renal) 1.32 µM | GI50 (M14 melanoma) 1.24 µM | GI50 (OVCAR-3 ovarian) 0.94 µM | GI50 (SK-MEL-2 melanoma) 1.09 µM | GI50 (OVCAR-8 ovarian) 1.51 µM | GI50 (COLO 205 colon) 1.25 µM

COc1ccccc1S(=O)(=O)Nc1ccc2c3c(cc(CCC(=O)NCCCCNc4cccc5c4C(=O)N(C4CCC(=O)NC4=O)C5=O)cc13)C(=O)N2C (centres undefined)
4.5 µM: TGI (RXF 393 renal)
3.32 µM: TGI (SK-MEL-5 melanoma)
0.515 µM: TGI (HOP-92 NSCLC)
inactive: GI50 (RPMI-8226 leukemia) 0.625 µM | GI50 (NCI-H522 lung) 4.22 µM | GI50 (OVCAR-5 ovarian) 2.77 µM | GI50 (NCI/ADR-RES ovarian) > 100 µM | GI50 (DU-145 prostate) 5.68 µM | GI50 (U251 CNS) > 63.4 µM | GI50 (UACC-62 melanoma) 13.4 µM | GI50 (NCI-H226 lung) 0.456 µM | GI50 (NCI-H460 lung) > 100 µM | GI50 (SK-MEL-5 melanoma) 0.982 µM | GI50 (A498 renal) 0.659 µM | GI50 (CAKI-1 renal) 2.31 µM | GI50 (HT29 colon) 3.84 µM | GI50 (LOX IMVI melanoma) 3.47 µM | GI50 (SF-295 CNS) 3.75 µM | GI50 (SK-MEL-28 melanoma) 1.08 µM | GI50 (SNB-19 CNS) 0.427 µM | GI50 (UO-31 renal) 2.4 µM | GI50 (MDA-MB-435) 0.726 µM | GI50 (RXF 393 renal) 0.862 µM | GI50 (HCT-116 colon) 3.06 µM | GI50 (UACC-257 melanoma) > 100 µM | GI50 (K-562 leukemia) 0.443 µM | GI50 (TK-10 renal) > 29.9 µM | GI50 (ACHN renal) > 100 µM | GI50 (KM12 colon) 0.697 µM | GI50 (SF-539 CNS) 0.978 µM | GI50 (A549 NSCLC) 5.73 µM | GI50 (786-0 renal) 2.18 µM | GI50 (SK-OV-3 ovarian) 1.4 µM | GI50 (NCI-H23 lung) 17 µM | GI50 (SN12C renal) 0.462 µM | GI50 (M14 melanoma) 1.11 µM | GI50 (OVCAR-3 ovarian) 2.21 µM | GI50 (SK-MEL-2 melanoma) 0.762 µM | GI50 (EKVX NSCLC) 18.1 µM | GI50 (COLO 205 colon) 0.459 µM
> 52.5 µM: TGI (SR leukemia)
1.44 µM: TGI (OVCAR-4 ovarian)
1.1 µM: TGI (HS 578T breast)
0.295 µM: TGI (MDA-MB-231 breast)
0.828 µM: TGI (SNB-75 CNS)
0.559 µM: TGI (MALME-3M melanoma)
> 27.4 µM: TGI (SK-MEL-2 melanoma)
active: GI50 (SF-268 CNS) 0.317 µM | GI50 (SNB-75 CNS) 0.0718 µM | GI50 (MOLT-4 leukemia) 0.0352 µM | GI50 (IGROV1 ovarian) 0.14 µM | GI50 (HL-60(TB) leukemia) 0.0273 µM | GI50 (MALME-3M melanoma) 0.0915 µM | GI50 (MCF7 breast) 0.264 µM | GI50 (PC-3 prostate) 0.204 µM | GI50 (CCRF-CEM leukemia) 0.0315 µM | GI50 (T-47D breast) 0.0343 µM | GI50 (MDA-MB-231 breast) 0.0351 µM | GI50 (OVCAR-4 ovarian) 0.259 µM | GI50 (HS 578T breast) 0.186 µM | GI50 (HOP-62 NSCLC) 0.416 µM | GI50 (SW-620 colon) 0.24 µM | GI50 (SR leukemia) 0.248 µM | GI50 (BT-549 breast) 0.0874 µM | GI50 (OVCAR-8 ovarian) 0.346 µM | GI50 (HOP-92 NSCLC) 0.0318 µM
4.94 µM: TGI (HOP-62 NSCLC)
8.08 µM: TGI (COLO 205 colon)
> 100 µM: TGI (RPMI-8226 leukemia) | TGI (SF-268 CNS) | TGI (IGROV1 ovarian) | TGI (NCI-H522 lung) | TGI (OVCAR-5 ovarian) | TGI (NCI/ADR-RES ovarian) | TGI (DU-145 prostate) | TGI (MCF7 breast) | TGI (U251 CNS) | TGI (UACC-62 melanoma) | TGI (PC-3 prostate) | TGI (NCI-H460 lung) | TGI (CAKI-1 renal) | TGI (HT29 colon) | TGI (LOX IMVI melanoma) | TGI (SF-295 CNS) | TGI (SK-MEL-28 melanoma) | TGI (SNB-19 CNS) | TGI (UO-31 renal) | TGI (SW-620 colon) | TGI (MDA-MB-435) | TGI (HCT-116 colon) | TGI (UACC-257 melanoma) | TGI (K-562 leukemia) | TGI (TK-10 renal) | TGI (ACHN renal) | TGI (KM12 colon) | TGI (SF-539 CNS) | TGI (A549 NSCLC) | TGI (786-0 renal) | TGI (SK-OV-3 ovarian) | TGI (NCI-H23 lung) | TGI (SN12C renal) | TGI (M14 melanoma) | TGI (OVCAR-3 ovarian) | TGI (OVCAR-8 ovarian) | TGI (EKVX NSCLC)
1.56 µM: TGI (BT-549 breast)
6.08 µM: TGI (A498 renal)
4.79 µM: TGI (NCI-H226 lung)
